Results from patent US8034940B2, “Modulators of glucocorticoid receptor, AP-1, and/or NF-κB activity and use thereof” (Bristol-Myers Squibb Company, priority 2006, dated 2011).

Biological target: T1, human full-length glucocorticoid receptor (Homo sapiens, UniProt P04150)
T1 sequence (P04150 1-777): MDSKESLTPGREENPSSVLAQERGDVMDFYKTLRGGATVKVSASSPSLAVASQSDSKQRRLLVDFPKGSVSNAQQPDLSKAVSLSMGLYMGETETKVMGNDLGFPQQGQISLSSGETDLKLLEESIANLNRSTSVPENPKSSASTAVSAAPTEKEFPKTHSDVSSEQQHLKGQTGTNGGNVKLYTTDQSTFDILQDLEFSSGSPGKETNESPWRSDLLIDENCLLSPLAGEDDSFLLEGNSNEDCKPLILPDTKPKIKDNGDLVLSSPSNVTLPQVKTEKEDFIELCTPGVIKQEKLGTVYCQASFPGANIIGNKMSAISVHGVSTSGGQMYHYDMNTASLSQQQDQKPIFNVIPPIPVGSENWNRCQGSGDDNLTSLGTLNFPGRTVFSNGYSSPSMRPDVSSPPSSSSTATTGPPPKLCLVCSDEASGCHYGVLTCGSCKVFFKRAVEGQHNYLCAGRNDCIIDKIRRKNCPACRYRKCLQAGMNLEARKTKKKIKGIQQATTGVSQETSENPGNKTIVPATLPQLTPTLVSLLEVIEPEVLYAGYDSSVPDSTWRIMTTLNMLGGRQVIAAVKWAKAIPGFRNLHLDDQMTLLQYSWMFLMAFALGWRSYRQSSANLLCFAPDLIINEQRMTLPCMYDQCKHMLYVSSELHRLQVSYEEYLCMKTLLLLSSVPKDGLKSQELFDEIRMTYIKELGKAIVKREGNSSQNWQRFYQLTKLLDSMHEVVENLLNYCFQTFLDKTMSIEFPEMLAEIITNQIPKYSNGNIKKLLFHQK
Experiment: Glucocorticoid Receptor Binding Assay (II), fluorescence polarization, FITC-dexamethasone
Design: recombinantly expressed human full-length glucocorticoid receptor; purchased PanVera Co., Madison P2816
Conditions: GR Binding Assay (II); read-out: GR (Ki, nM) (GR Binding Assay (II))
Protocol: Glucocorticoid Receptor Binding Assay (II)^b
In order to measure the binding of compounds on the glucocorticoid receptor a commercially available kit was used (Glucocorticoid receptor competitor assay kit, PanVera Co., Madison, W1, P2816). Briefly, a cell lysate containing recombinantly expressed human full-length glucocorticoid receptor was mixed with a fluorescently labeled glucocorticoid (4 nM FITC-dexamethasone) plus or minus test molecule. After one hour at room temperature, the fluorescence polarization (FP) of the samples were measured. […] Test molecules were analyzed in the concentration range from 0.1 nM to 40 μM.

| Compound | Ki [nM] |
| --- | --- |
| CCOC(=O)c1csc(NC(=O)C(C)(C)C2c3ccccc3Oc3cc(OC)ccc32)n1 (stereo not shown) [Example 48] | 60.9 |
| COc1ccc2c(c1)Oc1ccccc1[C@@H]2C(C)(C)C(=O)Nc1nccs1 [Example 60] | 35.7 |
| COc1ccc2c(c1)Oc1ccccc1[C@@H]2C(C)(C)C(=O)Nc1nncs1 [Example 62] | 58 |
| CCOC(=O)c1csc(NC(=O)C(C)(C)C2c3ccccc3Oc3ncccc32)n1 (stereo not shown) [Example 68] | 820 |
| Cc1cnc(NC(=O)C(C)(C)C2c3ccccc3Oc3ncccc32)s1 (stereo not shown) [Example 69] | 515 |
| Cc1nnc(NC(=O)C(C)(C)C2c3ccccc3Oc3ncccc32)s1 (stereo not shown) [Example 71] | 517 |
| CC(C)(C(=O)Nc1nccs1)C1c2ccccc2Oc2c(O)cccc21 (stereo not shown) [Example 81] | 243 |
| COc1cccc2c1Oc1ccccc1C2C(C)(C)C(=O)Nc1nccs1 (stereo not shown) [Example 84] | 104 |
| Cc1nc(NC(=O)C(C)(C)[C@H]2c3ccccc3Oc3cc(O)ccc32)sc1C [Example 86] | 32.9 |
| Cc1cnc(NC(=O)C(C)(C)[C@@H]2c3ccccc3Oc3cc(O)ccc32)s1 [Example 92] | 1200 |
| CC(C)(C(=O)Nc1nccs1)[C@@H]1c2ccccc2Oc2cc(O)ccc21 [Example 94] | 404 |
| CCOC(=O)c1csc(NC(=O)C(C)(C)C2c3ccccc3Oc3cc(O)ccc32)n1 (stereo not shown) [Example 96] | 22.1 |
| CCOC(=O)c1csc(NC(=O)C(C)(C)C2c3ccccc3Oc3cc(OCOCCOC)ccc32)n1 (stereo not shown) [Example 97] | 296 |
| COCCOCOc1ccc2c(c1)Oc1ccccc1C2C(C)(C)C(=O)Nc1nccs1 (stereo not shown) [Example 98] | 88.7 |
| CC(C)(C(=O)Nc1nncs1)[C@H]1c2ccccc2Oc2cc(C#N)ccc21 [Example 112] | 9.3 |
| CC(C)(C(=O)Nc1nncs1)[C@@H]1c2ccccc2Oc2nc(N3CCCC3)ccc21 [Example 137] | 221 |
| CC(C)(C(=O)Nc1nncs1)[C@H]1c2ccccc2Oc2nc(N3CCCCCC3)ccc21 [Example 146] | 37 |

Further molecules by falling Ki, results first:

| Ki [nM] | Compound |
| --- | --- |
| 2550 | Cc1nc(NC(=O)C(C)(C)[C@@H]2c3ccccc3Oc3cc(O)ccc32)sc1C [Example 91] |
| 1270 | Cc1csc(NC(=O)C(C)(C)[C@@H]2c3ccccc3Oc3cc(O)ccc32)n1 [Example 93] |
| 1160 | COC[C@H]1CCCN1c1ccc2c(n1)Oc1ccccc1[C@@H]2C(C)(C)C(=O)Nc1nncs1 [Example 145] |
| 909 | COc1ccc2c(c1)Oc1ccccc1[C@@H]2C(C)(C)C(=O)Nc1ncc[nH]1 [Example 61] |
| 762 | Cc1csc(NC(=O)C(C)(C)C2c3ccccc3Oc3ncccc32)n1 (stereo not shown) [Example 70] |
| 744 | C[C@@H](Nc1ccc2c(n1)Oc1ccccc1[C@@H]2C(C)(C)C(=O)Nc1nncs1)c1ccccc1 [Example 143] |
| 665 | CC(C)(C(=O)Nc1ncns1)C1c2ccccc2Oc2ncccc21 (stereo not shown) [Example 66] |
| 537 | CC(C)(C(=O)Nc1nncs1)[C@@H]1c2ccccc2Oc2nc(N3CCC4(CC3)OCCO4)ccc21 [Example 135] |
| 444 | CC(C)(C(=O)Nc1nncs1)[C@@H]1c2ccccc2Oc2nc(N3CCCCC3)ccc21 [Example 134] |
| 233 | COc1ccc2c(c1)Oc1ccccc1[C@H]2C(C)(C)C(=O)Nc1nccs1 [Example 56] |
| 156 | C[C@H](Nc1ccc2c(n1)Oc1ccccc1[C@@H]2C(C)(C)C(=O)Nc1nncs1)c1ccccc1 [Example 142] |
| 107 | CC(C)(C(=O)Nc1nccs1)C1c2ccccc2Oc2ncccc21 (stereo not shown) [Example 67] |
| 76.4 | CC(C)(C(=O)Nc1nncs1)C1c2ccccc2Oc2nc(Cl)ccc21 (stereo not shown) [Example 76] |
| 29.7 | CNc1ccc2c(n1)Oc1ccccc1C2C(C)(C)C(=O)Nc1nccs1 (stereo not shown) [Example 127] |
| 29 | CC(C)(C(=O)Nc1nccs1)C1c2ccccc2Oc2nc(Cl)ccc21 (stereo not shown) [Example 75] |
| 18.3 | COC(=O)c1csc(NC(=O)C(C)(C)C2c3ccccc3Oc3cc(O)ccc32)n1 (stereo not shown) [Example 99] |
| 11.4 | CC(C)(C(=O)Nc1nncs1)[C@H]1c2ccccc2Oc2nc(N3CCCCC3)ccc21 [Example 138] |
